From PubChem BioAssay (NCI)
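Dose response: 5 concentrations. Exposure: 48 h. Format: 96-well plates. Endpoint: linear interpolation; highest concentration if not reached. The concentration for 50% growth inhibition is given as GI50. TGI is the concentration that stops growth completely.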

Key:
Test in all cases: NCI tumour cell line growth inhibition, 48 h
MCF7 breast = tested on: MCF7 breast
IGROV1 ovarian = tested on: IGROV1 ovarian
OVCAR-5 ovarian = tested on: OVCAR-5 ovarian
NCI/ADR-RES ovarian = tested on: NCI/ADR-RES ovarian
NCI-H23 lung = tested on: NCI-H23 lung
U251 CNS = tested on: U251 CNS
MDA-MB-435 = tested on: MDA-MB-435
T-47D breast = tested on: T-47D breast
HS 578T breast = tested on: HS 578T breast
MDA-MB-231 breast = tested on: MDA-MB-231 breast
MDA-N = tested on: MDA-N

Row | SMILES | TGI (MCF7 breast) | TGI (IGROV1 ovarian) | TGI (OVCAR-5 ovarian) | TGI (NCI/ADR-RES ovarian) | TGI (NCI-H23 lung) | TGI (U251 CNS) | TGI (MDA-MB-435) | TGI (T-47D breast) | TGI (HS 578T breast) | TGI (MDA-MB-231 breast) | TGI (MDA-N) | GI50 (MCF7 breast) | GI50 (IGROV1 ovarian) | GI50 (MDA-MB-435) | GI50 (T-47D breast) | GI50 (OVCAR-5 ovarian) | GI50 (MDA-MB-231 breast) | GI50 (NCI/ADR-RES ovarian) | GI50 (U251 CNS) | GI50 (NCI-H23 lung)
1 | O=C(NC(Cc1ccc(I)cc1)C(=O)O)c1ccc(Cl)cc1 (stereo unspecified) | > 100 µM | > 100 µM | > 100 µM | > 100 µM | > 100 µM | > 100 µM |  |  |  |  |  |  |  |  |  |  |  |  |  | 
2 | CO/N=C(\C)c1cccc(Nc2nc3ccccc3c3occc23)c1 | 36.8 µM |  | 27.6 µM | 30.7 µM |  | 33.2 µM | 25.4 µM | 31.3 µM | 27.2 µM | 22.8 µM | 28.5 µM |  |  |  |  |  |  |  |  | 
3 | COc1cc([N+](=O)[O-])ccc1N1C(=O)C2c3[nH]c4ccccc4c3C3CCC(C(C)(C)C)CC3C2C1=O (stereo unspecified) | > 100 µM | > 100 µM | > 100 µM | > 100 µM | > 100 µM | 25.4 µM | > 100 µM |  | 43.4 µM | 75.5 µM | > 100 µM |  |  |  |  |  |  |  |  | 
4 | O=C1OC2(OC2c2ccc(Cl)cc2)c2ccccc21 (stereo unspecified) |  | > 100 µM | > 100 µM |  |  |  |  |  |  |  |  |  |  |  |  |  |  |  |  | 
5 | CNC(C)Cc1ccccc1OC (stereo unspecified) |  | > 100 µM | > 100 µM |  | > 100 µM | > 100 µM |  |  |  |  |  |  |  |  |  |  |  |  |  | 
6 | Cc1ccc([N+](=O)[O-])cc1S(=O)(=O)Nc1ccc(C2=NOC(c3ccccc3O)C2)cc1 (stereo unspecified) | 14 µM | > 100 µM | > 100 µM | 8.53 µM | 98.4 µM |  | 3.22 µM | > 100 µM | > 100 µM | > 100 µM | 4.17 µM |  |  |  |  |  |  |  |  | 
7 | CCOP(=O)(OCC)C(Nc1cccc(F)c1)c1ccc(N(C)C)cc1 (stereo unspecified) | > 100 µM | > 100 µM | > 100 µM | > 100 µM | > 100 µM | > 100 µM | > 100 µM | > 100 µM | > 100 µM | > 100 µM | > 100 µM |  |  |  |  |  |  |  |  | 
8 | CC1C(=O)C(C)C(c2ccco2)N(N=O)C1c1ccco1 (stereo unspecified) | > 100 µM | > 100 µM | > 100 µM | > 100 µM | > 100 µM | > 100 µM |  |  |  |  |  |  |  |  |  |  |  |  |  | 
9 | O=c1c2cc(S(=O)(=O)O)ccc2nc(COc2ccc(Oc3ccc(Cl)cc3Cl)cc2)n1C(=S)Nc1ccc(Cl)cc1 | 38.3 µM | > 100 µM | 40.7 µM | 37.9 µM | 36.2 µM | 35.5 µM | 39.3 µM | > 100 µM | 44.8 µM |  | 51 µM |  |  |  |  |  |  |  |  | 
10 | Cc1ccc(N=NC(C2=NC(=O)CS2)c2nc3ccccc3[nH]2)cc1 (stereo unspecified) |  | > 100 µM | > 100 µM |  | > 100 µM | > 100 µM |  |  |  |  |  |  |  |  |  |  |  |  |  | 
11 | C[n+]1c2ccccc2c(CNC(CS)C(=O)O)c2ccccc21 (stereo unspecified) |  | 67.2 µM | > 100 µM |  | > 100 µM | 66.7 µM |  |  |  |  |  |  |  |  |  |  |  |  |  | 
12 | CCOC(=O)Nc1cc2c(c(N)n1)N=C(c1ccc3ccccc3c1)CN2 | > 100 µM | > 100 µM | > 56.8 µM | 0.16 µM |  | > 100 µM | 0.338 µM | > 100 µM | 3.16 µM |  | 1.04 µM |  |  |  |  |  |  |  |  | 
13 | CS(=O)(=O)OCCN(CCOS(C)(=O)=O)c1ccc(/C=N/Nc2ncnc3nc[nH]c23)cc1 |  | 71.6 µM | 51.4 µM |  | 39 µM | 53.5 µM |  |  |  |  |  |  |  |  |  |  |  |  |  | 
14 | Nc1nc(OCC2CCCCC2)c2[nH]cnc2n1 | > 100 µM | > 48.6 µM | 53.1 µM | > 100 µM | > 100 µM | > 73.7 µM | 60.7 µM | 30 µM | > 44.5 µM | > 100 µM | 58.3 µM |  |  |  |  |  |  |  |  | 
15 | CN(C)c1ccc(/C=c2/c3ccccc3n3c2cc(NC(=O)NCCC[N+](C)(C)C)[n+]3C)cc1 | > 100 µM | 46.9 µM | > 100 µM | > 100 µM | > 100 µM | > 100 µM | > 100 µM | > 100 µM | > 100 µM | > 100 µM |  |  |  |  |  |  |  |  |  | 
16 | NCCNCCNc1ccc(NCCNCCN)c2c1C(=O)c1c(O)ccc(O)c1C2=O | > 100 µM | > 100 µM | > 100 µM | > 100 µM | > 100 µM | > 100 µM | > 100 µM |  | > 100 µM | > 100 µM | > 100 µM |  |  |  |  |  |  |  |  | 
17 | CCO[C@]12CCC[C@H]1[C@@H]1C(=O)c3ccccc3C(=O)C1=C(C)O2 | 35.8 µM | > 100 µM | > 100 µM | > 100 µM | > 100 µM | > 100 µM | > 100 µM | > 100 µM | > 100 µM | > 100 µM | 43 µM |  |  |  |  |  |  |  |  | 
18 | CC1(C=O)CCC23COC4(CCC5C6(C)CCC(OC7OCC(OC8OC(CO)C(O)C(OC9OC(CO)C(O)C(O)C9O)C8OC8OCC(O)C(O)C8O)C(O)C7OC7OC(CO)C(O)C(O)C7O)C(C)(C)C6CCC5(C)C4(C)CC2O)C3C1 (stereo unspecified) | 2.07 µM | 2.88 µM | 2.55 µM | 1.05 µM |  | > 100 µM |  | 3.36 µM | 2.99 µM | 0.95 µM | 1.81 µM |  |  |  |  |  |  |  |  | 
19 | CCCCCCCN(CCCCCCC)CC(O)c1cc2ccccc2c2cc(Br)ccc12 (stereo unspecified) | 48 µM | > 100 µM | > 100 µM | > 100 µM | > 100 µM | 45.6 µM | > 100 µM | > 100 µM |  | > 100 µM | > 100 µM |  |  |  |  |  |  |  |  | 
20 | COc1cc([N+](=O)[O-])ccc1NC(=O)c1cccc([N+](=O)[O-])c1O |  | > 100 µM | > 100 µM |  | 96.9 µM | > 100 µM |  |  |  |  |  |  |  |  |  |  |  |  |  | 
21 | Oc1ccc(-c2nc3cc(F)ccc3s2)cc1 | 28.5 µM | 43.4 µM | 58.4 µM | 42.4 µM | 83.8 µM | 42.6 µM | 43.1 µM | 33.7 µM |  |  | 79.4 µM |  |  |  |  |  |  |  |  | 
22 | c1ccc([P+](c2ccccc2)(c2ccccc2)c2ccc(-c3ccc([P+](c4ccccc4)(c4ccccc4)c4ccccc4)cc3)cc2)cc1 | > 100 µM | 13.4 µM | > 100 µM | > 100 µM | 55.3 µM | > 100 µM | 84.5 µM | > 100 µM | > 100 µM | 63.5 µM | 92.6 µM |  |  |  |  |  |  |  |  | 
23 | CC1(O)COCCCCOc2c(CN)cccc2NC(=O)c2nc(cnc2N)-c2ccc(cc2)S(=O)(=O)C(C)(C)C1 (stereo unspecified) | 1.89 µM | 2.7 µM | 3.56 µM | 4.02 µM |  | 2.22 µM | 2.72 µM | 3.27 µM |  | 2.82 µM |  | < 10 nM | 1280 nM | 1350 nM | 1440 nM | 2040 nM | 1370 nM | 1710 nM | 715 nM | 
24 | CC1CC(Br)C(=O)O1 (stereo unspecified) | > 100 µM | > 100 µM | > 100 µM | > 100 µM | > 100 µM | > 100 µM | > 100 µM | > 100 µM | > 100 µM | > 100 µM | > 100 µM |  |  |  |  |  |  |  |  | 
25 | N=C(N)SCc1cccc([N+](=O)[O-])c1 | > 83.8 µM | > 100 µM | > 100 µM | 48.3 µM | > 83 µM | 97.3 µM |  |  |  |  |  |  |  |  |  |  |  |  |  | 
26 | CCc1ccc2c(c1)C(=O)c1c-2n(CCCN)c(=O)c2cc([N+](=O)[O-])ccc12 | 1.6 µM | 2.56 µM | 3.59 µM | 3.29 µM | 3.29 µM | 2.29 µM | 3 µM | 2.91 µM |  | 2.98 µM |  | 362 nM | 1220 nM | 1560 nM | 1280 nM | 2070 nM | 1530 nM | 1620 nM | 1070 nM | 1810 nM
27 | c1c2c(cc3c1OCO3)-c1cc3ccc4c(c3c[n+]1CC2)OCO4 | > 12.5 µM | > 12.5 µM | > 12.5 µM | 1.28 µM | > 12.5 µM | > 11.4 µM | 0.865 µM | > 12.5 µM | > 12.5 µM | > 6.86 µM | 0.595 µM |  |  |  |  |  |  |  |  | 
